We go through 36 compounds from patent publication US20050171358A1 (priority 2002, published 2005).

One test has as its system Pyricularia oryzae. The format is in vivo. To be noted: 200 ppm spray on rice (Koshihikari, 3 leaf stage), inoculated next day; lesion numbers on third leaves after 7 days in green house, graded by Table 5.
Test [1] has as its system Colletotrichum lagenarium. To be noted: 200 ppm spray on cucumber (3 leaf stage), inoculated next day; lesion numbers on first and second leaves after 7 days in green house, graded by Table 5.

On to `O=C(NCc1cc(-c2ccccc2)no1)Nc1ccccc1Cl` [II-48, 1-[(3-phenyl-5-isoxazolyl)methyl]-3-(2-chlorophenyl)urea], for which, in the test with Pyricularia oryzae, the “Evaluation (effect for rice blast)” value was 3 (6˜10). Besides, the “Evaluation (effect for cucumber anthracnose)” value in test [1] was 4 (1˜5).
Turning to `O=C(NCc1cc(-c2ccccc2)no1)Nc1cccnc1` [II-100, 1-[(3-phenyl-5-isoxazolyl)methyl]-3-(3-pyridyl)urea], the “Evaluation (effect for rice blast)” value in the test with Pyricularia oryzae is listed as 4 (1˜5). Also, in test [1], the “Evaluation (effect for cucumber anthracnose)” value is on record as 4 (1˜5).
Turning to `O=C(NCc1cc(COc2ccccc2)no1)NC1CCCCC1` [II-104, 3-(3-phenoxymethyl-5-isoxazolyl)methyl-1-cyclohexylurea], the “Evaluation (effect for rice blast)” value with Pyricularia oryzae is listed as 5 (0). For the same compound, the “Evaluation (effect for cucumber anthracnose)” value in test [1] is on record as 5 (0).
`O=C(NCc1cc(COc2ccccc2)no1)NC1CCCC1` [II-106, 3-(3-phenoxymethyl-5-isoxazolyl)methyl-1-cyclopentylurea]: in the test on Pyricularia oryzae, the “Evaluation (effect for rice blast)” value was 3 (6˜10). In addition, in test [1], the “Evaluation (effect for cucumber anthracnose)” value was 2 (11˜20).
For `Cc1cc(CNC(=O)NC2CCCCC2)on1` [II-108, 3-(3-methyl-5-isoxazolyl)methyl-1-cyclohexylurea] the same measures were 1 (21˜41) and 2 (11˜20).
Take `CNC(=O)c1cc(CNC(=O)NC2CCCCC2)on1` [II-110, 3-(3-methylaminocarbonyl-5-isoxazolyl)methyl-1-cyclohexylurea]: the “Evaluation (effect for rice blast)” value in the test with Pyricularia oryzae is listed as 1 (21˜41). Also, the “Evaluation (effect for cucumber anthracnose)” value in test [1] is on record as 1 (21˜41).
As to `O=C(NCc1cc(COC2=CC(=O)C3CCC2C3)no1)NC1CCCCC1` (stereo not drawn) [II-112, 3-[3-(bicyclo[3.2.1]oct-2-en-4-on-2-yl)oxymethyl-5-isoxazolyl]methyl-1-cyclohexylurea], the “Evaluation (effect for rice blast)” value in the test with Pyricularia oryzae was 3 (6˜10). Also, the “Evaluation (effect for cucumber anthracnose)” value in test [1] was 3 (6˜10).
As for `N#CCc1cc(CNC(=O)NC2CCCCC2)on1` [II-113, 3-(3-cyanomethyl-5-isoxazolyl)methyl-1-cyclohexylurea], the “Evaluation (effect for rice blast)” value with Pyricularia oryzae is 2 (11˜20). Besides, in test [1], the “Evaluation (effect for cucumber anthracnose)” value is listed as 1 (21˜41).
As for `CSCc1cc(CNC(=O)NC2CCCCC2)on1` [II-114, 3-(3-methylthiomethyl-5-isoxazolyl)methyl-1-cyclohexylurea], the “Evaluation (effect for rice blast)” value in the test on Pyricularia oryzae is 3 (6˜10). Moreover, the “Evaluation (effect for cucumber anthracnose)” value in test [1] is listed as 3 (6˜10).
In the case of `CC(C)c1cc(CNC(=O)c2ccccc2)on1` [III-4, N-[(3-isopropyl-5-isoxazolyl)methyl]benzamide], in the test with Pyricularia oryzae, the “Evaluation (effect for rice blast)” value is 3 (6˜10). Moreover, the “Evaluation (effect for cucumber anthracnose)” value in test [1] is 4 (1˜5).
As to `Cc1ccc(C(=O)NCc2cc(C(C)C)no2)cc1` [III-5, N-[(3-isopropyl-5-isoxazolyl)methyl]-4-methyl benzamide], in the test on Pyricularia oryzae, the “Evaluation (effect for rice blast)” value is 4 (1˜5). In addition, the “Evaluation (effect for cucumber anthracnose)” value in test [1] is given as 4 (1˜5).
Take `O=C(NCc1cc(C2CCCCC2)no1)c1ccccc1` [III-6, N-[(3-cyclohexyl-5-isoxazolyl)methyl]benzamide]: in the test on Pyricularia oryzae, the “Evaluation (effect for rice blast)” value is listed as 5 (0). Moreover, the “Evaluation (effect for cucumber anthracnose)” value in test [1] is 4 (1˜5).
As to `Cc1ccc(-c2cc(CNC(=O)c3ccccc3)on2)cc1` [III-10, N-{[3-(4-tolyl)-5-isoxazolyl]methyl}benzamide], the “Evaluation (effect for rice blast)” value with Pyricularia oryzae is 5 (0). Also, the “Evaluation (effect for cucumber anthracnose)” value in test [1] is 5 (0).
With `Cc1ccc(C(=O)NCc2cc(-c3ccc(C)cc3)no2)cc1` [III-11, N-{[3-(4-tolyl)-5-isoxazolyl]methyl}-4-methylbenzamide], the “Evaluation (effect for rice blast)” value in the test on Pyricularia oryzae is 5 (0). Besides, the “Evaluation (effect for cucumber anthracnose)” value in test [1] is given as 3 (6˜10).
As to `COc1ccc(C(=O)NCc2cc(-c3ccc(C)cc3)no2)cc1` [III-12, N-{[3-(4-tolyl)-5-isoxazolyl]methyl}-4-methoxybenzamide], the “Evaluation (effect for rice blast)” value in the test on Pyricularia oryzae is given as 5 (0). In test [1], the “Evaluation (effect for cucumber anthracnose)” value is on record as 5 (0).
With `COc1ccc(C(=O)NCc2cc(-c3ccc(C(C)(C)C)cc3)no2)cc1` [III-14, N-{[3-(4-t-butylphenyl)-5-isoxazolyl]methyl}-4-methoxybenzamide], in the test on Pyricularia oryzae, the “Evaluation (effect for rice blast)” value is given as 5 (0). Also, the “Evaluation (effect for cucumber anthracnose)” value in test [1] was 3 (6˜10).
On to `COc1ccc(-c2cc(CNC(=O)c3ccccc3)on2)cc1` [III-17, N-{[3-(4-methoxyphenyl)-5-isoxazolyl]methyl}benzamide], for which the “Evaluation (effect for rice blast)” value in the test on Pyricularia oryzae was 5 (0). Also, the “Evaluation (effect for cucumber anthracnose)” value in test [1] is given as 5 (0).
Consider `COc1ccc(C(=O)NCc2cc(-c3ccc(OC)cc3)no2)cc1` [III-18, N-{[3-(4-methoxyphenyl)-5-isoxazolyl]methyl}-4-methoxy benzamide], for which the “Evaluation (effect for rice blast)” value in the test with Pyricularia oryzae was 5 (0). For the same compound, the “Evaluation (effect for cucumber anthracnose)” value in test [1] is 5 (0).
As to `COc1ccc(-c2cc(CNC(=O)c3ccc(C)cc3)on2)cc1` [III-19, N-{[3-(4-methoxyphenyl)-5-isoxazolyl]methyl}-4-methylbenzamide], the “Evaluation (effect for rice blast)” value in the test with Pyricularia oryzae is 5 (0). Moreover, in test [1], the “Evaluation (effect for cucumber anthracnose)” value was 5 (0).
Turning to `Cc1ccc(C(=O)NCc2cc(-c3ccc(S(C)(=O)=O)cc3)no2)cc1` [III-26, N-{[3-(4-mesylphenyl)-5-isoxazolyl]methyl}-4-methylbenzamide], the “Evaluation (effect for rice blast)” value in the test with Pyricularia oryzae is recorded as 5 (0). The “Evaluation (effect for cucumber anthracnose)” value in test [1] is 5 (0).
For the compound `Cc1ccc(C(=O)NCc2cc(-c3ccc([S+](C)[O-])cc3)no2)cc1` (stereo not drawn) [III-27, N-{[3-(4-methanesulfinylphenyl)-5-isoxazolyl]methyl}-4-methylbenzamide], the “Evaluation (effect for rice blast)” value with Pyricularia oryzae is listed as 5 (0). In addition, in test [1], the “Evaluation (effect for cucumber anthracnose)” value is 5 (0).
In the case of `CSc1ccc(-c2cc(CNC(=O)c3ccc(C)cc3)on2)cc1` [III-28, N-{[3-(4-methylthiophenyl)-5-isoxazolyl]methyl}-4-methylbenzamide], in the test on Pyricularia oryzae, the “Evaluation (effect for rice blast)” value is recorded as 5 (0). Moreover, in test [1], the “Evaluation (effect for cucumber anthracnose)” value is 4 (1˜5).
As to `Cc1ccc(C(=O)NCc2cc(-c3ccc(F)cc3)no2)cc1` [III-31, N-{[3-(4-fluorophenyl)-5-isoxazolyl]methyl}-4-methylbenzamide], in the test on Pyricularia oryzae, the “Evaluation (effect for rice blast)” value is on record as 5 (0). For the same compound, in test [1], the “Evaluation (effect for cucumber anthracnose)” value is 5 (0).
Consider `O=C(NCc1cc(-c2ccc(Cl)cc2)no1)c1ccccc1` [III-34, N-{[3-(4-chlorophenyl)-5-isoxazolyl]methyl}benzamide], for which the “Evaluation (effect for rice blast)” value in the test on Pyricularia oryzae is on record as 5 (0). For the same compound, the “Evaluation (effect for cucumber anthracnose)” value in test [1] is recorded as 5 (0).
Consider `O=C(NCc1cc(-c2ccc(Br)cc2)no1)c1ccccc1` [III-37, N-{[3-(4-bromophenyl)-5-isoxazolyl]methyl}benzamide], for which the “Evaluation (effect for rice blast)” value with Pyricularia oryzae was 5 (0). Besides, the “Evaluation (effect for cucumber anthracnose)” value in test [1] is on record as 3 (6˜10).
Consider `O=C(NCc1cc(-c2ccc(C(F)(F)F)cc2)no1)c1ccccc1` [III-40, N-{[3-(4-trifluoromethylphenyl)-5-isoxazolyl]methyl}benzamide], for which the “Evaluation (effect for rice blast)” value with Pyricularia oryzae is given as 5 (0). The “Evaluation (effect for cucumber anthracnose)” value in test [1] is given as 5 (0).
In the case of `Cc1ccc(C(=O)NCc2cc(-c3ccc(C#N)cc3)no2)cc1` [III-43, N-{[3-(4-cyanophenyl)-5-isoxazolyl]methyl}-4-methylbenzamide], in the test on Pyricularia oryzae, the “Evaluation (effect for rice blast)” value is 5 (0). Further, the “Evaluation (effect for cucumber anthracnose)” value in test [1] was 4 (1˜5).
With `COc1ccc(C(=O)NCc2cc(-c3ccc(OC(F)(F)F)cc3)no2)cc1` [III-49, N-{[3-(4-trifluoromethoxyphenyl)-5-isoxazolyl]methyl}-4-methoxybenzamide], the “Evaluation (effect for rice blast)” value with Pyricularia oryzae is 5 (0). In addition, the “Evaluation (effect for cucumber anthracnose)” value in test [1] is given as 5 (0).
Take `Cc1ccc(C(=O)NCc2cc(-c3ccc(C(=O)O)cc3)no2)cc1` [III-51, N-{[3-(4-carboxyphenyl)-5-isoxazolyl]methyl}-4-methylbenzamide]: the “Evaluation (effect for rice blast)” value with Pyricularia oryzae is 5 (0). Besides, in test [1], the “Evaluation (effect for cucumber anthracnose)” value is listed as 4 (1˜5).
For `COC(=O)c1ccc(-c2cc(CNC(=O)c3ccc(C)cc3)on2)cc1` [III-52, N-{[3-(4-methoxycarbonylphenyl)-5-isoxazolyl]methyl}-4-methylbenzamide], in the test with Pyricularia oryzae, the “Evaluation (effect for rice blast)” value is listed as 5 (0). Moreover, the “Evaluation (effect for cucumber anthracnose)” value in test [1] is reported as 5 (0).
In the case of `Cc1ccc(C(=O)NCc2cc(-c3ccc(N(C)C)cc3)no2)cc1` [III-61, N-{[3-(4-dimethylaminophenyl)-5-isoxazolyl]methyl}-4-methylbenzamide], the “Evaluation (effect for rice blast)” value in the test with Pyricularia oryzae is 5 (0). Further, the “Evaluation (effect for cucumber anthracnose)” value in test [1] is recorded as 4 (1˜5).
In the same order, the values of `Cc1ccc(C(=O)NCc2cc(-c3ccc(C)cc3C)no2)cc1` [III-65, N-{[3-(2,4-dimethylphenyl)-5-isoxazolyl]methyl}-4-methylbenzamide] are 5 (0) and 5 (0).
On to `COc1ccc(-c2cc(CNC(=O)c3ccc(C)cc3)on2)c(OC)c1` [III-66, N-{[3-(2,4-dimethoxyphenyl)-5-isoxazolyl]methyl}-4-methylbenzamide], for which, in the test with Pyricularia oryzae, the “Evaluation (effect for rice blast)” value is 5 (0). Also, the “Evaluation (effect for cucumber anthracnose)” value in test [1] is listed as 5 (0).
`COc1ccc(-c2cc(CNC(=O)c3ccccc3)on2)cc1OC` [III-67, N-{[3-(3,4-dimethoxyphenyl)-5-isoxazolyl]methyl}benzamide]: in the test on Pyricularia oryzae, the “Evaluation (effect for rice blast)” value was 5 (0). In test [1], the “Evaluation (effect for cucumber anthracnose)” value is reported as 5 (0).
For `COc1ccc(-c2cc(CNC(=O)c3ccc(C)cc3)on2)cc1OC` [III-68, N-{[3-(3,4-dimethoxyphenyl)-5-isoxazolyl]methyl}-4-methylbenzamide], the “Evaluation (effect for rice blast)” value in the test with Pyricularia oryzae was 5 (0). The “Evaluation (effect for cucumber anthracnose)” value in test [1] was 5 (0).
As to `Cc1ccc(C(=O)NCc2cc(-c3ccc(C)c(F)c3)no2)cc1` [III-73, N-{[3-(3-fluoro-4-methylphenyl)-5-isoxazolyl]methyl}-4-methylbenzamide], the “Evaluation (effect for rice blast)” value in the test with Pyricularia oryzae is reported as 5 (0). Moreover, the “Evaluation (effect for cucumber anthracnose)” value in test [1] is listed as 4 (1˜5).
